Reference: patent US8664251B1, “Ryanodine receptor inhibitors for treatment of T-cell mediated disorders” (The Regents of the University of California, priority 2009, dated 2014)

How the values were obtained:
resting human T cells = assay: Fura-2 calcium imaging in resting human T cells; type: cell-based; conditions: resting T cells preincubated 30 min with 30 μM Da or 500 μM Ry; CPA then Ca^2+ readdition
Experimental: (§1) All studies involving human subjects were performed after approval by UC Davis Institutional Review Board and after all subjects gave written informed consent. Resting CD3^+ human lymphocytes were isolated from the peripheral blood of healthy consented adults using RosetteSep™ human lymphocyte enrichment kit (Stem Cell Tech.) following the manufacturer's instructions. Resting T cells were resuspended at 0.5−1×10^6 cells/ml in […] medium supplemented with 10 mM HEPES, 10% fetal bovine serum, 2% L-glutamine, 2% vitamins solution, 1% RPMI amino acids solution, and 0.01% β-mercaptoethanol and maintained in suspension in 5% CO2 at 37° C. Resting T cells were activated on the day of isolation by incubation with either PHA ([…]) or anti-CD3 antibody coated onto the tissue culture plates and soluble anti-CD28 antibody (5 m/ml; BD Biosciences). Resting T cells were taken for analysis on the day of isolation, whereas activated T cells were tested 4-5 days after activation.
Cell cultures and chemicals were as described in the Example 1. […]
Fluorescence images were acquired from adherent cells using a SenSys CCD camera (Roper Scientific, Tucson, Ariz.) and a 40× oil immersion Zeiss objective on a Zeiss Axiovert 200 inverted microscope (Thornwood, N.Y.). […] Unless otherwise indicated, in each experiment changes in [Ca^2+]i were recorded from 15-20 cells and then averaged.

activated human T cells = assay: Fura-2 calcium imaging in activated human T cells; type: cell-based; conditions: for [Ca^2+]i elevation evoked by readdition of extracellular Ca^2+ ([Ca^2+]SOCE): activated T cells preincubated 30 min with 500 μM Ry or 30 μM Da, p<0.01, n=7
Experimental: as §1
Cell cultures and chemicals were as described in the Example 1. Before experiment, cells were plated on poly-l-lysine-coated glass-bottom clambers and then loaded with 1 μM fura-2/AM and pluronic F-127 for 5 min in modified Tyrode solution containing (in mM): 130 NaCl, 5.6 KCl, 1 MgCl2, 2 CaCl2, 10 HEPES, 10 D-glucose; pH 7.3. After washing, cells were incubated for additional 30 min at 37° C. […] In nominally Ca^2+-free solution, Ca^2+ was omitted.
Fluorescence images were acquired from adherent cells using a SenSys CCD camera (Roper Scientific, Tucson, Ariz.) and a 40× oil immersion Zeiss objective on a Zeiss Axiovert 200 inverted microscope (Thornwood, N.Y.). Lambda DG-4 filter changer (Sutter Instrument, Novato, Calif.) was used for switching between 340 and 380 nm excitation wavelengths. All experiments were performed at room temperature. Solution exchange was performed via a gravity-driven perfusion system. Solution exchange in the recording chamber was completed within 5 s. […] Unless otherwise indicated, in each experiment changes in [Ca^2+]i were recorded from 15-20 cells and then averaged.

Jurkat T cells [1] = assay: CFSE proliferation assay, Jurkat T cells; type: cell-based, human; conditions: 400 μM Ry or 30 μM Da, 72 hours
Experimental: (§2) Cell cultures and chemicals were as described in the Example 1. Proliferation assay—Cell division track assay was conducted using carboxyfluorescein succinimidyl ester (CFSE) proliferation kit (Molecular probes). Stock solution of CFSE (4 mM) was prepared in DMSO. Cells were washed, resuspended in PBS containing 4 μM CFSE at density 1×10^6 cells/ml, and incubated at 37° C. for 10 min. Labeling was quenched by adding 5× volume of RPMI 1640 culture media containing 10% FBS. After washing 3 times with RPMI 1640+10% FBS, cells were placed into FBS-free cell culture media to abolish cell division and kept overnight in 5% CO2 at 37° C. After overnight incubation, the CFSE-labeled cells were pellet down and fraction of them (˜50000) were fixed with 1% paraformaldehyde in PBS and analyzed by flow cytometry to establish the CFSE fluorescence profile of undivided cells. […] Fluorescence intensity was measured at 488 nm using FACScan flow cytometer and CellQuest software (Becton Dickinson Bioscience, Mountain View, Calif.). The number of cell divisions was calculated using FlowJo software (Tree Star Inc, Ashland, Oreg.). […]
(§3) Freshly isolated CD3^+ resting human T cells or Jurkat T cells were loaded with CFSE and fraction of them was fixed with 1% paraformaldehyde in PBS and analyzed by flow cytometry to establish the CFSE fluorescence profile of undivided cells (time 0). […]

human T cells = assay: CFSE proliferation assay, human T cells activated with anti-CD3/CD28 Ab; type: cell-based; conditions: 400 μM Ry or 30 μM Da; anti-CD3/CD28 Ab activation
Experimental: as §2, §3

Jurkat T cells [2] = assay: IL-2 production assay (ELISA), PHA-stimulated Jurkat T cells; type: cell-based, human; conditions: Ry 400 μM or Da 30 μM applied 30 min prior to PHA, 24 hours, p<0.01, n=6
Experimental: Jurkat T cells were washed 3 timed with PBS and resuspended in FBS-free cell culture media at density 0.8×10^6 cells/ml and seeded into 96 well tissue culture plate (0.4 ml per well) and then stimulated with […] mitogenic lectin phytohaemagglutinin P (PHA). Some cells were pre-incubated for 30 min at 37° C. with, Ry (400 μM), or dantrolene (30 μM) prior to stimulation with PHA. After 24 hours of incubation, cells culture supernatants were collected and contents of IL-2 was determined by ELISA using Quantikine kits (R&D systems, Minneapolis, Minn.) according to manufacturer instructions.

murine T cell [3] = conditions: cited from earlier work
murine T cell [4] = conditions: murine T cells; cited from earlier work
Jurkat T cells [5] = assay: Fura-2 calcium imaging in Jurkat T cells; type: cell-based, human
Experimental: Cell cultures and chemicals were as described in the Example 1. Before experiment, cells were plated on poly-l-lysine-coated glass-bottom clambers and then loaded with 1 μM fura-2/AM and pluronic F-127 for 5 min in modified Tyrode solution containing (in mM): 130 NaCl, 5.6 KCl, 1 MgCl2, 2 CaCl2, 10 HEPES, 10 D-glucose; pH 7.3. After washing, cells were incubated for additional 30 min at 37° C. Some cells were incubated in Modified Tyrode solution containing 400 μM Ry, 30 μM dantrolene, or vehicles (methanol or, ethanol, or DMSO) alone for 30 min at 37° C. In nominally Ca^2+-free solution, Ca^2+ was omitted.
Fluorescence images were acquired from adherent cells using a SenSys CCD camera (Roper Scientific, Tucson, Ariz.) and a 40× oil immersion Zeiss objective on a Zeiss Axiovert 200 inverted microscope (Thornwood, N.Y.). Lambda DG-4 filter changer (Sutter Instrument, Novato, Calif.) was used for switching between 340 and 380 nm excitation wavelengths. All experiments were performed at room temperature. Solution exchange was performed via a gravity-driven perfusion system. Solution exchange in the recording chamber was completed within 5 s. The vehicles-containing solutions (methanol or DMSO) were applied in place of the drugs in all control experiments. Data acquisition was performed using MetaFluor v7.0 software (Universal Imaging, Downingtown, Pa.). [Ca^2+]i values were estimated from fura-2 calibration as described previously (Grynkiewicz, G., Poenie, M., and Tsien, R. Y. (1985) J Biol Chem 260(6), 3440-3450). Kd was taken as 248 nM (Fanger, C. M., Neben, A. L., and Cahalan, M. D. (2000) J Immunol 164(3), 1153-1160). Unless otherwise indicated, in each experiment changes in [Ca^2+]i were recorded from 15-20 cells and then averaged.

Jurkat T cells [6] = assay: Manganese quench of fura-2 fluorescence (divalent cation influx via SOC channels); type: cell-based, human; conditions: Jurkat T cells preincubated 30 min with 400 μM Ry; with or without 30 μM CPA; n=5
Excerpt: Because Mn^2+ readily passes through SOC channels (Missiaen, L., Declerck, I., Droogmans, G., Plessers, L., De Smedt, H., Raeymaekers, L., and Casteels, R. (1990) J Physiol 427, 171-186) and is unlikely to be transported from the cytosol (Chiesi, M., and Inesi, G. (1980) Biochemistry 19(13), 2912-2918; Chiesi, M., and Inesi, G. (1981) Arch Biochem Biophys 208(2), 586-592), the rate of fura-2 quenching in the presence of Mn^2+ was used as a measure of divalent cation influx into the bulk cytoplasm in intact cells. The extracellular solution used in all Mn^2+ quench experiments contained (in mM): 130 NaCl, 5.6 KCl, 1 MgCl2, 0.3 CaCl2, 0.5 MnCl2, 10 HEPES, 10 D-glucose; pH 7.3. Changes in Ca^2+-independent fluorescence due to Mn^2+ quench were determined using method described by Zhou & Neher (Zhou, Z., and Neher, E. (1993) J Physiol 469, 245-273). Briefly, background corrected fura-2 fluorescence excited at 340 nm (F340) was plotted against background corrected fura-2 fluorescence excited at 380 nm (F380) during the initial 10 seconds following application of 30 μM cyclopiazonic acid (CPA). The slope of the F340 versus F380 relationship equals the ‘isocoefficient’ α. The fluorescence value, Fi, which is unaffected by changes in [Ca^2+]i, was determined as: […]. […]

Compound | time courses of changes in [Ca^2+]i (resting human T cells) | [Ca^2+]i elevation evoked by readdition of extracellular Ca^2+ ([Ca^2+]SOCE) (activated human T cells) | Jurkat T cell proliferation (CFSE fluorescence profile) (Jurkat T cells [1]) | normal human activated T cell proliferation (CFSE fluorescence profile) (human T cells) | PHA-induced IL-2 production (Jurkat T cells [2]) | murine T cell proliferation following TCR stimulation (murine T cell [3]) | IL-2 production following TCR stimulation (murine T cell [4]) | Ca^2+ liberation from the ryanodine-sensitive store (activated human T cells; caffeine 20 mM, activated human T cells, normal Tyrode solution) | PHA-induced [Ca^2+]i transients in the absence of extracellular Ca^2+ (Jurkat T cells [5]; Jurkat T cells preincubated with 400 μM Ry) | CPA-induced [Ca^2+]i transients following PHA in the absence of extracellular Ca^2+ (Jurkat T cells [5]; Jurkat T cells preincubated with 400 μM Ry, 30 μM CPA) | reduction of maximal amplitudes of [Ca^2+]i transients during Ca^2+ readdition following TCR stimulation (Jurkat T cells [5]; Jurkat T cells preincubated with 400 μM Ry, PHA then 0.5 mM Ca^2+ readdition) [%] | [Ca^2+]i transients evoked by Ca^2+ readdition ([Ca^2+]SOCE) (Jurkat T cells [5]; Jurkat T cells preincubated with Ry, 2 mM Ca^2+ readdition after CPA, p<0.01, n=6) | store refilling (CPA2/CPA1 ratio) (Jurkat T cells [5]; Jurkat T cells preincubated with Ry, p<0.01, n=6) | Ca^2+ release on extracellular (acute) application (Jurkat T cells [5]; Ry 400 applied in nominally Ca^2+-free extracellular solution, Jurkat T cells, n=5) | divalent cation influx (Mn^2+ quench of fura-2 fluorescence) (Jurkat T cells [6])
O=C1CN(N=Cc2ccc(-c3ccc([N+](=O)[O-])cc3)o2)C(=O)N1 [dantrolene, 1-[[[5-(4-nitrophenyl)-2-furanyl]methylene]amino]-2,4-imidaz olidinedione] | did not affect | reduced | inhibit | inhibit | significantly inhibited | inhibit | inhibit |  |  |  |  |  |  |  | 
N.N.N.N.N.N.N.N.N.N.N.N.N.N.[Cl-].[Cl-].[Cl-].[Cl-].[Cl-].[Cl-].[O-2].[O-2].[Ru+3].[Ru+3].[Ru+4] [ruthenium red] |  |  |  |  |  | inhibit | inhibit |  |  |  |  |  |  |  | 
Cn1c(=O)c2c(ncn2C)n(C)c1=O [caffeine] |  |  |  |  |  |  |  | produced Ca^2+ liberation |  |  |  |  |  |  | 
ryanodine | did not affect | reduced | inhibit | inhibit | significantly inhibited |  |  |  | did not significantly affect | did not significantly affect | 42 | significantly downregulated | facilitated store refilling | does not induce Ca^2+ release | does not induce Ca^2+ release (FIG. 2 D) or affect divalent ction influx
